Source: patent US11149040B2, “Fused triazole agonists of the APJ receptor” (AMGEN INC., priority 2017, dated 2021)

These compounds were tested against human APJ receptor (Homo sapiens (Human), UniProt P35414) (assay: [35S]GTPγS binding assay on membranes from CHO cells stably expressing human APJ receptor). Settings: read-out: Activity hAPJ SPA EC50 IP.
human APJ receptor, sequence (P35414 whole entry): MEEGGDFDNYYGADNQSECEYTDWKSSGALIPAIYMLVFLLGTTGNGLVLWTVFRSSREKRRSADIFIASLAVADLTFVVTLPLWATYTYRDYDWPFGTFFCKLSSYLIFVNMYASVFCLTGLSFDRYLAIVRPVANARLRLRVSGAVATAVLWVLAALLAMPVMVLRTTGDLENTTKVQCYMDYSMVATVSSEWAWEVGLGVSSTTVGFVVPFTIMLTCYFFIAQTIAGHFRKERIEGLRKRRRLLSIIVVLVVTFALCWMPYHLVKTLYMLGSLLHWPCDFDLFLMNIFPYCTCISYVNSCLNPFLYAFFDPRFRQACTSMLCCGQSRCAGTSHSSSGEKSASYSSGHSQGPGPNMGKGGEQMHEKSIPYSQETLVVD
Assay type: biochemical
Procedure: [^35S]GTPγS Binding The human APJ receptor was cloned by polymerase chain reaction and the gene encoding the receptor was subcloned in pFLAG-CMV™-3 expression vector (Sigma, Saint Louis, Mo. USA) in-house at Amgen. A GTPγS binding assay was performed on membranes prepared from CHO cells stably expressing human APJ receptor. The optimum experimental conditions for the concentrations of GDP, MgCl2, and NaCl in the assay buffer were initially determined. […] Incubation was at RT for 90 min and the microplate was read using a ViewLux™ ultra HTS Microplate Imager (PerkinElmer, Inc.). All the results presented are means of several independent experiments and analyzed by non-linear regression methods using the commercially available program Prism (GraphPad, San Diego, Calif.) providing the EC50 values detailed in Table 13.
Compound COC[C@@H]1COc2ccc(OC)nc2-c2nnc(NS(=O)(=O)[C@@H](C)[C@@H](OC(C)C)c3ncc(C)cn3)n21 (single isomer, unassigned) [Example 14.0, (1S,2S)-N-((5R)-10-methoxy-5-(methoxymethyl)-5,6-dihydropyrido[2,3-1][1,2,4]triazolo[4,3-d][1,4]oxazepin-3-yl)-1-(5-methyl-2-pyrimidinyl)-1-(2-propanyloxy)-2-propanesulfonamide or (1S,2S)-N-((5S)-10-methoxy-5-(methoxymethyl)-5,6-dihydropyrido[2,3-1][1,2,4]triazolo[4,3-d][1,4]oxazepin-3-yl)-1-(5-methyl-2-pyrimidinyl)-1-(2-propanyloxy)-2-propanesulfonamide] has an EC50 of 400 nM.
COC[C@@H]1COc2ccc(OC)nc2-c2nnc(NS(=O)(=O)[C@@H](C)[C@@H](OC(C)C)c3ncc(C)cn3)n21 (single isomer, unassigned) [Example 15.0, (1S,2S)-N-((5R)-10-methoxy-5-(methoxymethyl)-5,6-dihydropyrido[2,3-f][1,2,4]triazolo[4,3-d][1,4]oxazepin-3-yl)-1-(5-methyl-2-pyrimidinyl)-1-(2-propanyloxy)-2-propanesulfonamide or (1S,2S)-N-((5S)-10-methoxy-5-(methoxymethyl)-5,6-dihydropyrido[2,3-f][1,2,4]triazolo[4,3-d][1,4]oxazepin-3-yl)-1-(5-methyl-2-pyrimidinyl)-1-(2-propanyloxy)-2-propanesulfonamide] was tested, and the EC50 was 37 nM.
COc1ccc2c(n1)-c1nnc(NS(=O)(=O)[C@@H](C)[C@@H](OC(C)C)c3ncc(C)cn3)n1[C@H](CO)CO2 (single isomer, unassigned) [Example 18.0, (1S,2S)-N-((R)-5-(hydroxymethyl)-10-methoxy-5,6-dihydropyrido[2,3-f][1,2,4]triazolo[4,3-d][1,4]oxazepin-3-yl)-1-isopropoxy-1-(5-methylpyrimidin-2-yl)propane-2-sulfonamide or (1S,2S)-N-((S)-5-(hydroxymethyl)-10-methoxy-5,6-dihydropyrido[2,3-f][1,2,4]traizolo[4,3-d][1,4]oxazepin-3-yl)-1-isopropoxy-1-(5-methylpyrimidin-2-yl)propane-2-sulfonamide] showed an EC50 of 640 nM.
For COc1ccc2c(n1)-c1nnc(NS(=O)(=O)[C@@H](C)[C@@H](OC(C)C)c3ncc(C)cn3)n1[C@H](CO)CO2 (single isomer, unassigned) [Example 19.0, (1S,2S)-N-((R)-5-(hydroxymethyl)-10-methoxy-5,6-dihydropyrido[2,3-f][1,2,4]triazolo[4,3-d][1,4]oxazepin-3-yl)-1-isopropoxy-1-(5-methylpyrimidin-2-yl)propane-2-sulfonamide or (1S,2S)-N-((S)-5-(hydroxymethyl)-10-methoxy-5,6-dihydropyrido[2,3-f][1,2,4]triazolo[4,3-d][1,4]oxazepin-3-yl)-1-isopropoxy-1-(5-methylpyrimidin-2-yl)propane-2-sulfonamide], the EC50 was 990 nM.
In the case of COC[C@@H]1COc2cc(F)c(F)cc2-c2nnc(NS(=O)(=O)[C@@H](C)[C@@H](OC(C)C)c3ncc(C)cn3)n21 (single isomer, unassigned) [Example 20.0, (1S,2S)-N-((5R)-9,10-difluoro-5-(methoxymethyl)-5,6-dihydro[1,2,4]triazolo[4,3-d][1,4]benzoxazepin-3-yl)-1-(5-methyl-2-pyrimidinyl)-1-(2-propanyloxy)-2-propanesulfonamide or (1S,2S)-N-((5S)-9,10-difluoro-5-(methoxymethyl)-5,6-dihydro[1,2,4]triazolo[4,3-d][1,4]benzoxazepin-3-yl)-1-(5-methyl-2-pyrimidinyl)-1-(2-propanyloxy)-2-propanesulfonamide], the EC50 is reported as 990 nM.
With COC[C@@H]1COc2cc(F)c(F)cc2-c2nnc(NS(=O)(=O)[C@@H](C)[C@@H](OC(C)C)c3ncc(C)cn3)n21 (single isomer, unassigned) [Example 21.0, (1S,2S)-N-((5R)-9,10-difluoro-5-(methoxymethyl)-5,6-dihydro[1,2,4]triazolo[4,3-d][1,4]benzoxazepin-3-yl)-1-(5-methyl-2-pyrimidinyl)-1-(2-propanyloxy)-2-propanesulfonamide or (1S,2S)-N-((5S)-9,10-difluoro-5-(methoxymethyl)-5,6-dihydro[1,2,4]triazolo[4,3-d][1,4]benzoxazepin-3-yl)-1-(5-methyl-2-pyrimidinyl)-1-(2-propanyloxy)-2-propanesulfonamide] the EC50 was 3400 nM.
COC[C@@H]1COc2ccc(F)cc2-c2nnc(NS(=O)(=O)[C@@H](C)[C@@H](OC(C)C)c3ncc(C)cn3)n21 (single isomer, unassigned) [Example 25.0, (1S,2S)-N-((5R)-10-fluoro-5-(methoxymethyl)-5,6-dihydro[1,2,4]traizolo[4,3-d][1,4]benzoxazepin-3-yl)-1-(5-methyl-2-pyrimidinyl)-1-(2-propanyloxy)-2-propanesulfonamide or (1S,2S)-N-((5S)-10-fluoro-5-(methoxymethyl)-5,6-dihydro[1,2,4]traizolo[4,3-d][1,4]benzoxazepin-3-yl)-1-(5-methyl-2-pyrimidinyl)-1-(2-propanyloxy)-2-propanesulfonamide] gave an EC50 of 28 nM.
For COC[C@@H]1COc2ccc(F)cc2-c2nnc(NS(=O)(=O)[C@@H](C)[C@@H](OC(C)C)c3ncc(C)cn3)n21 (single isomer, unassigned) [Example 26.0, (1S,2S)-N-((5R)-10-fluoro-5-(methoxymethyl)-5,6-dihydro[1,2,4]triazolo[4,3-d][1,4]benzoxazepin-3-yl)-1-(5-methyl-2-pyrimidinyl)-1-(2-propanyloxy)-2-propanesulfonamide or (1S,2S)-N-((5S)-10-fluoro-5-(methoxymethyl)-5,6-dihydro[1,2,4]triazolo[4,3-d][1,4]benzoxazepin-3-yl)-1-(5-methyl-2-pyrimidinyl)-1-(2-propanyloxy)-2-propanesulfonamide], the EC50 was 460 nM.
For COC[C@@H]1COc2ccc(F)cc2-c2nnc(NS(=O)(=O)[C@@H](C)[C@H](OC)c3ncc(C)cn3)n21 (single isomer, unassigned) [Example 27.0, (1R,2S)-N-((5R)-10-fluoro-5-(methoxymethyl)-5,6-dihydro[1,2,4]triazolo[4,3-d][1,4]benzoxazepin-3-yl)-1-methoxy-1-(5-methyl-2-pyrimidinyl)-2-propanesulfonamide or (1R,2S)-N-((5S)-10-fluoro-5-(methoxymethyl)-5,6-dihydro[1,2,4]triazolo[4,3-d][1,4]benzoxazepin-3-yl)-1-methoxy-1-(5-methyl-2-pyrimidinyl)-2-propanesulfonamide], the EC50 was 490 nM.
Compound COC[C@@H]1COc2ccc(F)cc2-c2nnc(NS(=O)(=O)[C@@H](C)[C@H](OC)c3ncc(C)cn3)n21 (single isomer, unassigned) [Example 28.0, (1R,2S)-N-((5R)-10-fluoro-5-(methoxymethyl)-5,6-dihydro[1,2,4]triazolo[4,3-d][1,4]benzoxazepin-3-yl)-1-methoxy-1-(5-methyl-2-pyrimidinyl)-2-propanesulfonamide or (1R,2S)-N-((5S)-10-fluoro-5-(methoxymethyl)-5,6-dihydro[1,2,4]triazolo[4,3-d][1,4]benzoxazepin-3-yl)-1-methoxy-1-(5-methyl-2-pyrimidinyl)-2-propanesulfonamide] has an EC50 of 170 nM.
For COC[C@@H]1COc2ncccc2-c2nnc(NS(=O)(=O)CCc3ncc(C)cn3)n21 (single isomer, unassigned) [Example 34.0, N-((5R)-5-(methoxymethyl)-5,6-dihydropyrido[3,2-f][1,2,4]triazolo[4,3-d][1,4]oxazepin-3-yl)-2-(5-methyl-2-pyrimidinyl)ethanesulfonamide or N-((5S)-5-(methoxymethyl)-5,6-dihydropyrido[3,2-f][1,2,4]triazolo[4,3-d][1,4]oxazepin-3-yl)-2-(5-methyl-2-pyrimidinyl)ethanesulfonamide], the EC50 was 180 nM.
COC[C@@H]1COc2c(OC)cccc2-c2nnc(NS(=O)(=O)[C@@H](C)[C@@H](OC(C)C)c3ncc(C)cn3)n21 (single isomer, unassigned) [Example 38.0, (1S,2S)-N-((5R)-8-methoxy-5-(methoxymethyl)-5,6-dihydro[1,2,4]traizolo[4,3-d][1,4]benzoxazepin-3-yl)-1-(5-methyl-2-pyrimidinyl)-1-(2-propanyloxy)-2-propanesulfonamide or (1S,2S)-N-((5S)-8-methoxy-5-(methoxymethyl)-5,6-dihydro[1,2,4]triazolo[4,3-d][1,4]benzoxazepin-3-yl)-1-(5-methyl-2-pyrimidinyl)-1-(2-propanyloxy)-2-propanesulfonamide] was tested, and the EC50 was 64 nM.
With COC[C@@H]1COc2c(OC)cccc2-c2nnc(NS(=O)(=O)[C@@H](C)[C@@H](OC(C)C)c3ncc(C)cn3)n21 (single isomer, unassigned) [Example 39.0, (1S,2S)-N-((5R)-8-methoxy-5-(methoxymethyl)-5,6-dihydro[1,2,4]traizolo[4,3-d][1,4]benzoxazepin-3-yl)-1-(5-methyl-2-pyrimidinyl)-1-(2-propanyloxy)-2-propanesulfonamide or (1S,2S)-N-((5S)-8-methoxy-5-(methoxymethyl)-5,6-dihydro[1,2,4]traizolo[4,3-d][1,4]benzoxazepin-3-yl)-1-(5-methyl-2-pyrimidinyl)-1-(2-propanyloxy)-2-propanesulfonamide] the EC50 was 8 nM.
Work on COC[C@@H]1COc2ncccc2-c2nnc(NS(=O)(=O)[C@@H](C)[C@@H](OC(C)C)c3ncc(C)cn3)n21 (single isomer, unassigned) [Example 40.0] yielded an EC50 of 86 nM.
